Measurements: ChEMBL document CHEMBL4613228, “Identification of small-molecule urea derivatives as novel NAMPT inhibitors via pharmacophore-based virtual screening” (Bioorg Med Chem, 2020)

Assays:
HepG2 = test: Cytotoxicity against human HepG2 cells assessed as reduction in cell viability measured after 72 hrs by SRB assay; type: functional, cell-based; settings: for IC50: HepG2, 72 h
[1] = target: Nicotinamide phosphoribosyltransferase (Homo sapiens, UniProt P43490); test: Inhibition of NAMPT (unknown origin) using NAM and PRPP as substrates incubated for 2 hrs in presence of ATP by fluorimetric plate reader assay
Nicotinamide phosphoribosyltransferase, sequence (P43490 whole entry): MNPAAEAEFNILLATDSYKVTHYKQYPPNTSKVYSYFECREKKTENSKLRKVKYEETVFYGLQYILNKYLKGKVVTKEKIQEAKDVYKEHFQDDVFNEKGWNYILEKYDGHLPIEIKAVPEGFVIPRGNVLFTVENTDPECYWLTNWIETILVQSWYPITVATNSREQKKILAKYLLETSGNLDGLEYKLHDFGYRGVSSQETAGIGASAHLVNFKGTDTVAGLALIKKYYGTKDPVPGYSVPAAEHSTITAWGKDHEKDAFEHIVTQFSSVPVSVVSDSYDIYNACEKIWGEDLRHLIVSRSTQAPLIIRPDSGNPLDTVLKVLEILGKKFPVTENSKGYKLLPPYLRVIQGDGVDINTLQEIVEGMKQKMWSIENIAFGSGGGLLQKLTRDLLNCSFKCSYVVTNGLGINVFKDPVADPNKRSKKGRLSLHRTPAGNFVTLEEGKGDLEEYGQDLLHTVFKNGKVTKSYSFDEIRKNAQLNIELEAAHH

Row | IC50 [1] | Compound | IC50 (HepG2) | inhibition (HepG2)
1 | – | O=C(/C=C/c1cccnc1)NCCCCC1CCN(C(=O)c2ccccc2)CC1 [DAPORINAD] | 0.0187 µM | –
2 | 7.31 µM | CCOC(=O)c1ccc(NC(=O)NCc2ccnc(-n3ccnc3C)c2)cc1 | 24.3 µM | –
3 | 2.15 µM | CCCOC(=O)c1ccc(NC(=O)NCc2cccnc2)cc1 | 15.2 µM | Dose-dependent effect
